As a reminder, the IC50 is the point on the concentration scale where inhibition reaches its midpoint.

In test [1] the target is T1, human JAK2 (a.a. 828-1132) (Homo sapiens, UniProt O60674).
T1 construct: JAK2 (a.a. 828-1132); His tag (N); made in house; host or cells: insect cells (baculovirus)
The test can be described thus: In vitro JAK kinase assay (HTRF, phosphorylation of a biotinylated peptide), JAK2. In kind it is biochemical. To be noted: Table D1. How it is done: (§1) The catalytic activity of JAK1, JAK2 or JAK3 was assayed by measuring the phosphorylation of a biotinylated peptide. The phosphorylated peptide was detected by homogenous time resolved fluorescence (HTRF). […] The ATP concentration in the reactions was 90 μM for JAK1, 30 μM for JAK2 and 3 μM for JAK3. Reactions were carried out at room temperature for 1 hr and then stopped with 20 μL 45 mM EDTA, 300 nM SA-APC, 6 nM Eu-Py20 in assay buffer (Perkin Elmer, Boston, Mass.). Binding to the Europium labeled antibody took place for 40 minutes and HTRF signal was measured on a Fusion plate reader (Perkin Elmer, Boston, Mass.).
(§2) The catalytic activity of JAK1, JAK2 or JAK3 was assayed by measuring the phosphorylation of a biotinylated peptide. The phosphorylated peptide was detected by homogenous time resolved fluorescence (HTRF). […] Reactions were carried out at room temperature for 1 hr and then stopped with 20 μL 45 mM EDTA, 300 nM SA-APC, 6 nM Eu-Py20 in assay buffer (Perkin Elmer, Boston, Mass.). Binding to the Europium labeled antibody took place for 40 minutes and HTRF signal was measured on a Fusion plate reader (Perkin Elmer, Boston, Mass.).

Test [2] addresses T2, human JAK1 (a.a. 837-1142) (Homo sapiens, UniProt P23458).
T2 construct: human JAK1 (a.a. 837-1142); His tag (N); made in house; host or cells: insect cells (baculovirus)
Briefly: In vitro JAK kinase assay (HTRF, phosphorylation of a biotinylated peptide), JAK1. To be noted: Table D1; read-out: JAK1 IC50. The class given is biochemical. The procedure:
as §1, §2
In general terms: Time-resolved FRET reads energy transfer from a long-lived donor to a nearby acceptor.

T1 sequence (O60674 828-1132): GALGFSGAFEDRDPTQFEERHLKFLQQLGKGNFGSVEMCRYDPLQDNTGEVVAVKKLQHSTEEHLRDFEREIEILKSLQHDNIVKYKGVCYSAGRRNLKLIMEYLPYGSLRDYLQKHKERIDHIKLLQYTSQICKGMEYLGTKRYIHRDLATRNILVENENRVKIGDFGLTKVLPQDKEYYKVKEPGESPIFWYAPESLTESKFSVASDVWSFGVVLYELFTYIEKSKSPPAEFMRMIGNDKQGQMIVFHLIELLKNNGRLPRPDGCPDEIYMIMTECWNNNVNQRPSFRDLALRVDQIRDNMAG
T2 sequence (P23458 849-1154): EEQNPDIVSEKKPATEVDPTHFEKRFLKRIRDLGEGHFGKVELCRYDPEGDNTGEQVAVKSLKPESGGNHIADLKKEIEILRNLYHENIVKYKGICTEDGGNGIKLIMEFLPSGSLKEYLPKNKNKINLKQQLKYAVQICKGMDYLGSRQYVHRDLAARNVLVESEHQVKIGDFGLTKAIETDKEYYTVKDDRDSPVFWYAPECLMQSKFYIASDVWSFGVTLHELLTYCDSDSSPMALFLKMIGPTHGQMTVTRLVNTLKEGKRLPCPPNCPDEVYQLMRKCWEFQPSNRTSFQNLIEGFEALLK

Take `Cn1cc(C(=O)N2CC[C@@H](CC(=O)Nc3ccc4cc3CCc3cncc(c3)Nc3ncc(Cl)c(n3)N4)C2)cn1` [Example D122, N-[6-Chloro-2,4,8,18,22-pentaazatetracyclo[14.3.1.1(3,7).1(9,13)]docosa-1(20),3(22),4,6,9(21),10,12,16,18-nonaen-12-yl]-2-{(3S)-1-[(1-methyl-1H-pyrazol-4-yl)carbonyl]pyrrolidin-3-yl}acetamide bis(trifluoroacetate)]: the IC50 in test [1] worked out at 0.5 µM; in test [2] it was 0.043 µM.

With `O=C(C[C@@H]1CCN(C(=O)c2cn[nH]c2)C1)Nc1ccc2cc1CCc1cncc(c1)Nc1ncc(Cl)c(n1)N2` [Example D133, N-[6-Chloro-2,4,8,18,22-pentaazatetracyclo[14.3.1.1(3,7).1(9,13)]docosa-1(20),3(22),4,6,9(21),10,12,16,18-nonaen-12-yl]-2-[(3S)-1-(1H-pyrazol-4-ylcarbonyl)pyrrolidin-3-yl]acetamide bis(trifluoroacetate)], the IC50 in test [1] came out at 0.9 µM; in test [2], 0.073 µM.

For `Cn1ccc(C(=O)N2CC[C@H](CC(=O)Nc3ccc4cc3CCc3cncc(c3)Nc3ncc(Cl)c(n3)N4)C2)n1` [Example D106, N-[6-Chloro-2,4,8,18,22-pentaazatetracyclo[14.3.1.1(3,7).1(9,13)]docosa-1(20),3(22),4,6,9(21),10,12,16,18-nonaen-12-yl]-2-{(3R)-1-[(1-methyl-1H-pyrazol-3-yl)carbonyl]pyrrolidin-3-yl}acetamide bis(trifluoroacetate)], the IC50 in test [1] amounted to 0.256 µM; in test [2], 0.032 µM.

On to `O=C(C[C@@H]1CCN(C(=O)c2cc[nH]n2)C1)Nc1ccc2cc1CCc1cncc(c1)Nc1ncc(Cl)c(n1)N2` [Example D134, N-[6-Chloro-2,4,8,18,22-pentaazatetracyclo[14.3.1.1(3,7).1(9,13)]docosa-1(20),3(22),4,6,9(21),10,12,16,18-nonaen-12-yl]-2-[(3S)-1-(1H-pyrazol-3-ylcarbonyl)pyrrolidin-3-yl]acetamide bis(trifluoroacetate)], for which the IC50 in test [1] was found to be 0.357 µM; in test [2] it was 0.044 µM.

For `Cn1cc(C(=O)N2CC[C@H](CC(=O)Nc3ccc4cc3CCc3cncc(c3)Nc3ncc(Cl)c(n3)N4)C2)cn1` [Example D107, N-[6-Chloro-2,4,8,18,22-pentaazatetracyclo[14.3.1.1(3,7).1(9,13)]docosa-1(20),3(22),4,6,9(21),10,12,16,18-nonaen-12-yl]-2-{(3R)-1-[(1-methyl-1H-pyrazol-4-yl)carbonyl]pyrrolidin-3-yl}acetamide bis(trifluoroacetate)], the values for the IC50 in test [1] and in test [2] were 0.185 µM and 0.025 µM, respectively.

Turning to `CS(=O)(=O)N1CC[C@H](CC(=O)Nc2ccc3cc2CCc2cncc(c2)Nc2ncc(Cl)c(n2)N3)C1` [Example D112, N-[6-Chloro-2,4,8,18,22-pentaazatetracyclo[14.3.1.1(3,7).1(9,13)]docosa-1(20),3(22),4,6,9(21),10,12,16,18-nonaen-12-yl]-2-[(3R)-1-(methylsulfonyl)pyrrolidin-3-yl]acetamide bis(trifluoroacetate)], the concentration for half-maximal inhibition (IC50) was 0.142 µM in test [1] and 0.0099 µM in test [2].

Regarding `N#Cc1ccc(NC(=O)N2CC[C@H](CC(=O)Nc3ccc4cc3CCc3cncc(c3)Nc3ncc(Cl)c(n3)N4)C2)cc1` [Example D98, (3R)-3-(2-{[6-Chloro-2,4,8,18,22-pentaazatetracyclo[14.3.1.1(3,7).1(9,13)]docosa-1(20),3(22),4,6,9(21),10,12,16,18-nonaen-12-yl]amino}-2-oxoethyl)-N-(4-cyanophenyl)pyrrolidine-1-carboxamide bis(trifluoroacetate)], the results for the 50% inhibitory concentration (IC50) in test [1] and in test [2] were 0.122 µM and 0.012 µM, respectively.

With `N#Cc1ccc(NC(=O)N2CC[C@@H](CC(=O)Nc3ccc4cc3CCc3cncc(c3)Nc3ncc(Cl)c(n3)N4)C2)cc1` [Example D114, (3S)-3-(2-{[6-Chloro-2,4,8,18,22-pentaazatetracyclo[14.3.1.1(3,7).1(9,13)]docosa-1(20),3(22),4,6,9(21),10,12,16,18-nonaen-12-yl]amino}-2-oxoethyl)-N-(4-cyanophenyl)pyrrolidine-1-carboxamide bis(trifluoroacetate)], the IC50 in test [1] was determined as 0.083 µM; in test [2], 0.009 µM.

In the case of `O=C(C[C@H]1CCN(C(=O)Nc2ccccc2F)C1)Nc1ccc2cc1CCc1cncc(c1)Nc1ncc(Cl)c(n1)N2` [Example D104, (3R)-3-(2-{[6-Chloro-2,4,8,18,22-pentaazatetracyclo[14.3.1.1(3,7).1(9,13)]docosa-1(20),3(22),4,6,9(21),10,12,16,18-nonaen-12-yl]amino}-2-oxoethyl)-N-(2-fluorophenyl)pyrrolidine-1-carboxamide bis(trifluoroacetate)], the results for the concentration for half-maximal inhibition (IC50) in test [1] and in test [2] were 0.255 µM and 0.0085 µM, respectively.

On to `O=C(C[C@H]1CCCN(c2nc3ccccc3s2)C1)Nc1ccc2cc1CCc1cncc(c1)Nc1ncc(Cl)c(n1)N2` [Example D212, 2-[(3R)-1-(1,3-Benzothiazol-2-yl)piperidin-3-yl]-N-[6-chloro-2,4,8,18,22-pentaazatetracyclo[14.3.1.1(3,7).1(9,13)]docosa-1(20),3(22),4,6,9(21),10,12,16,18-nonaen-12-yl]acetamide tris(trifluoroacetate)], for which the IC50 in test [1] was over 1 µM; in test [2], 0.064 µM.

With `N#Cc1ccccc1NC(=O)N1CC[C@@H](CC(=O)Nc2ccc3cc2CCc2cncc(c2)Nc2ncc(Cl)c(n2)N3)C1` [Example D116, (3S)-3-(2-{[6-Chloro-2,4,8,18,22-pentaazatetracyclo[14.3.1.1(3,7).1(9,13)]docosa-1(20),3(22),4,6,9(21),10,12,16,18-nonaen-12-yl]amino}-2-oxoethyl)-N-(2-cyanophenyl)pyrrolidine-1-carboxamide bis(trifluoroacetate)], the half-inhibitory concentration (IC50) in test [1] was 0.577 µM; in test [2] it was 0.023 µM.

For the molecule `O=C(C[C@@H]1CCN(C(=O)c2ccno2)C1)Nc1ccc2cc1CCc1cncc(c1)Nc1ncc(Cl)c(n1)N2` [Example D120, N-[6-Chloro-2,4,8,18,22-pentaazatetracyclo[14.3.1.1(3,7).1(9,13)]docosa-1(20),3(22),4,6,9(21),10,12,16,18-nonaen-12-yl]-2-[(3S)-1-(isoxazol-5-ylcarbonyl)pyrrolidin-3-yl]acetamide bis(trifluoroacetate)], the IC50 in test [1] was found to be 0.397 µM; in test [2] it was 0.02 µM.

As for `N#Cc1ccccc1NC(=O)N1CC[C@H](CC(=O)Nc2ccc3cc2CCc2cncc(c2)Nc2ncc(Cl)c(n2)N3)C1` [Example D100, (3R)-3-(2-{[6-Chloro-2,4,8,18,22-pentaazatetracyclo[14.3.1.1(3,7).1(9,13)]docosa-1(20),3(22),4,6,9(21),10,12,16,18-nonaen-12-yl]amino}-2-oxoethyl)-N-(2-cyanophenyl)pyrrolidine-1-carboxamide bis(trifluoroacetate)], the IC50 was 0.191 µM in test [1] and 0.02 µM in test [2].

Take `O=C(C[C@H]1CCN(C(=O)c2nc[nH]n2)C1)Nc1ccc2cc1CCc1cncc(c1)Nc1ncc(Cl)c(n1)N2` [Example D128, N-[6-Chloro-2,4,8,18,22-pentaazatetracyclo[14.3.1.1(3,7).1(9,13)]docosa-1(20),3(22),4,6,9(21),10,12,16,18-nonaen-12-yl]-2-[(3R)-1-(1H-1,2,4-triazol-3-ylcarbonyl)pyrrolidin-3-yl]acetamide bis(trifluoroacetate)]: the concentration for half-maximal inhibition (IC50) in test [1] was found to be 0.199 µM; in test [2], 0.021 µM.

`N#Cc1cccc(NC(=O)N2CC[C@H](CC(=O)Nc3ccc4cc3CCc3cncc(c3)Nc3ncc(Cl)c(n3)N4)C2)c1` [Example D99, (3R)-3-(2-{[6-Chloro-2,4,8,18,22-pentaazatetracyclo[14.3.1.1(3,7).1(9,13)]docosa-1(20),3(22),4,6,9(21),10,12,16,18-nonaen-12-yl]amino}-2-oxoethyl)-N-(3-cyanophenyl)pyrrolidine-1-carboxamide bis(trifluoroacetate)]: the figures for the IC50 in test [1] and in test [2] were 0.107 µM and 0.015 µM, respectively.

With `Cn1cncc1C(=O)N1CC[C@H](CC(=O)Nc2ccc3cc2CCc2cncc(c2)Nc2ncc(Cl)c(n2)N3)C1` [Example D111, N-[6-Chloro-2,4,8,18,22-pentaazatetracyclo[14.3.1.1(3,7).1(9,13)]docosa-1(20),3(22),4,6,9(21),10,12,16,18-nonaen-12-yl]-2-{(3R)-1-[(1-methyl-1H-imidazol-5-yl)carbonyl]pyrrolidin-3-yl}acetamide tris(trifluoroacetate)], the half-maximal inhibitory concentration (IC50) in test [1] was 0.689 µM; in test [2], 0.061 µM.

On to `O=C(C[C@H]1CCN(C(=O)Nc2ccccc2)C1)Nc1ccc2cc1CCc1cncc(c1)Nc1ncc(Cl)c(n1)N2` [Example D97, (3R)-3-(2-{[6-Chloro-2,4,8,18,22-pentaazatetracyclo[14.3.1.1(3,7).1(9,13)]docosa-1(20),3(22),4,6,9(21),10,12,16,18-nonaen-12-yl]amino}-2-oxoethyl)-N-phenylpyrrolidine-1-carboxamide bis(trifluoroacetate)], for which the concentration for half-maximal inhibition (IC50) in test [1] was 0.084 µM; in test [2], 0.0033 µM.

Values taken from patent publication US8871753B2, “Macrocyclic compounds and their use as kinase inhibitors” (Incyte Corporation, priority 2008, dated 2014).
